Measured values from US12030876B2, “Aryl hydrocarbon receptor (AHR) agonists and uses thereof” (Ikena Oncology, Inc., priority 2019, dated 2024).

Columns and labels:
[1] = test system: T-cell transfer IBD model; format: in vivo, SCID mice
Procedure: On study day 0, donor Balb/C mice are terminated, and spleens obtained for CD4+CD45RB^high cell isolation (Using a SCID IBD Cell Separation Protocol). After cells have been sorted and obtained, each recipient SCID animal receives an IP injection of, at a minimum, 4×10^5 cells (200 μl/mouse injections). Also on study day 0, SCID mice are weighed and randomized into treatment groups based on body weight. On study day 14, AHR agonist compound treatments are initiated and dosed orally daily; the control group receiving anti-IL12 (0.5 mg/mouse) is dosed IP once a week. On study day 49, animals are anesthetized with Isoflurane and bled to exsanguination followed by cervical dislocation. The entire colon is removed, measured, and weighed. Overall efficacy of AHR agonist compounds are based on a ratio of colon weight to length, and colon histopathology and colon cytokines (Th17 panel).

[2] = test system: DSS model of Inflammatory Bowel Disease (IBD); format: in vivo, C57Bl/6 mice; settings: DSS model
Procedure: On study day −1, C57Bl/6 mice are weighed and randomized into treatment groups based on body weight. On study day 0, treatment groups are given 2.5% DSS in drinking water and treatment is initiated on the same day, with either vehicle or AHR agonist compound(s). On study day 7, DSS drinking water is replaced with normal drinking water for the remainder of the study. Body weight is measured daily during the entire study. On study day 10, animals are anesthetized with Isoflurane and bled to exsanguination followed by cervical dislocation. The entire colon is removed and measured for length, weight, and weight per length. Overall efficacy of test AR agonist compounds is based on body weight, colon length, and colon histopathology. Histopathology data is assessed for appropriate parameters, as determined by a pathologist and the parameters for these DSS studies can include inflammation, erosion, gland loss, edema, hyperplasia, neutrophil count, mucosal thickening, lymphoid aggregate count and lymphoid aggregate size. The different parameter scores can be added for a summed score for the study histopathology.

[3] = test system: DSS model of Inflammatory Bowel Disease (IBD); set-up: species or system C57Bl/6 mice; settings: mouse
[4] = test system: naive CD62L+ human T-Cells; assay: Th17 assay; format: cell-based; settings: FIG. 16
Procedure: On Day 1, naive CD62L+ human T-Cells were plated in a 96 well plate (25,000 cells in 200 uL media). Cells were activated with human CD3/CD28 tetramer (12.5 μL/1×10^6 cells) and differentiated with human Th17 cytokines (50 ng/mL IL-6, 20 ng/mL IL-1 beta, 10 ng/mL IL-23, 1 ng/mL TGF-beta, 12 μg/mL anti-human IFN-γ antibody and 10 μg/mL anti-human TL-4 antibody) for 10 days. Media containing cytokine cocktail and CD3/CD28 was refreshed every 2-3 days. On Day 10, cell supernatant was collected and frozen for cytokine analysis. Cells were stimulated with 1× Cell Stimulation Cocktail (PMA and Ionomycin) for 5 hours. After 5 hours of stimulation, cells were stained for intracellular cytokines (human CD4, IL-17A, IL-22). Samples were run on BD LSR FORTESSA and analyzed in FLOWJO software.

[5] = test system: human regulatory T cells (Tregs); assay: Treg assay (human); format: cell-based; settings: compound present during induction of Tregs, in vitro; FIG. 15
Procedure: On day 0, naïve T cells from cryopreserved human derived PBMCs were isolated. These cells were plated in 48 well plate at 500,000 cells/mL concentration with human CD3/CD28 activation tetramer (12.5 μL/1×10^6 cells) and differentiated into regulatory T cells (Tregs) with 1 ng/mL […] and 5 ng/mL human recombinant TL-2 in the presence of DMSO or different concentrations of AHR agonist compounds.
On day 5, the Tregs were counted and washed. CD25− Effector T cells (Teffs) were isolated from the same human donor and were labeled with Cell Trace Violet. The Tregs and Teffs were cocultured for 4 days in 96 well plate at 1:2 or 1:1 ratio with human CD3/CD28 tetramer (12.5 μL/1×10^6 cells).
At the end of a 4 day co-culture, the cells were washed and stained with LiveDead stain. They were run on flow cytometer and analyzed using FLOWJO software.

[6] = test system: human Crohn's and ulcerative colitis tissue cultures
Cyp1a1 gene expression = test system: Cyp1a1 gene expression; set-up: species or system C57BL/6N mice; settings: mouse, in vivo
Procedure: C57BL/6N mice are weighed and randomized into treatment groups with group size of 3-5 mice. On study Day 1, treatment is initiated and necropsies follow on day 1 at 4 and 12 hours post-dose and on Day 2, 24 hours post-dose. On Day 1, mice are dosed orally with one dose of the AHR agonist compound(s) that are in a suspension and mixed well before dosing. At the designated time, animals are euthanized and plasma and tissue taken for compound levels (PK) and compound effect (PD) on gene expression. Liver samples and proximal colon are weighed and then frozen for subsequent RNA extraction and RT-PCR analysis. AHR activation is determined by measuring Cyp1a1 gene expression relative to a housekeeping gene, such as GAPDH or HPRT. Cyp1a1 expression levels in the liver are compared to Cyp1a1 levels in the colon to determine a colon:liver ratio to determine the level of GI preferred AHR activation.

[7] = T-cell transfer IBD model, FIG. 9

| Structure (SMILES) | cytokine activity: IFN-γ, IL-1β, and MIP-3α/CCL20 ([1]; T-cell transfer IBD model, colon cytokines, FIG. 11) | cytokine activity: GM-CSF and IL-6 ([1]; T-cell transfer IBD model, colon cytokines, FIG. 12) | cytokine activity: IL-17/IL-25 and TNF-α ([1]; T-cell transfer IBD model, colon cytokines, FIG. 13) | body weight [1, 7] | colon weight [1, 7] | reduction in colon weight compared to vehicle [1, 7] [%] | reduction in colon weight per length compared to vehicle [1, 7] [%] | inflammation ([1]; T-cell transfer IBD model, FIG. 10) | in vivo AHR activation by expression of Cyp1a1 in the colon ([1]; mouse, in vivo) | inflammation and erosion (histopathology) ([2]; relative to vehicle control, FIG. 6, FIG. 19) | colon length ([2]; FIG. 5) | content score ([2]; FIG. 5) | in vivo AHR activation by expression of Cyp1a1 in the colon [3] | IL-17A+ human T-cells ([4]; Th17 polarizing conditions) | IL-22+ human T-cells ([4]; Th17 polarizing conditions) | human Th17 cell differentiation ([4]; in vitro) | suppressive functions of human Tregs [5] | cytokine release: IFN-γ, IL-17A, IL-1β, and TNF-α [6] | Cyp1a1 induction in the colon (Cyp1a1 gene expression) |
| --- | --- | --- | --- | --- | --- | --- | --- | --- | --- | --- | --- | --- | --- | --- | --- | --- | --- | --- | --- |
| FC(F)(F)c1cccc(Nc2nc(-c3cccc(Cl)c3)cs2)c1 [Compound P-2] | significant reduction | significant reduction | reduction | increased body weight | decreased colon weight | 54 | 54 | significant reduction | confirmed | minimal inflammation and mild erosion | increased colon length | improved content score | confirmed | – | – | – | – | – | – |
| Nc1cccc(-c2csc(Nc3cccc(C(F)(F)F)c3)n2)c1 [I-10] | – | – | – | – | – | – | – | – | – | – | – | – | – | decreases | increases | modulates | increases suppressive functions | decreases | comparable |
